Reference: PubChem BioAssay (NCI)
Several values for one entry are separate records, joined by “and”; a condition that tells them apart may be missing. Equal entries are not always repeated.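 How tested: cells in 96-well plates exposed to compound for 48 hours at five concentrations. The concentration for 50% growth inhibition is given as GI50. At the TGI there is no net growth.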

Assays:
Assay in all cases: NCI tumour cell line growth inhibition, 48 h
MDA-N = system: MDA-N
NCI-H522 lung = system: NCI-H522 lung
PC-3 prostate = system: PC-3 prostate
NCI/ADR-RES ovarian = system: NCI/ADR-RES ovarian
SN12C renal = system: SN12C renal
SF-539 CNS = system: SF-539 CNS
NCI-H226 lung = system: NCI-H226 lung
HOP-92 NSCLC = system: HOP-92 NSCLC
MCF7 breast = system: MCF7 breast
HCC-2998 colon = system: HCC-2998 colon
HL-60(TB) leukemia = system: HL-60(TB) leukemia
COLO 205 colon = system: COLO 205 colon
SW-620 colon = system: SW-620 colon
LOX IMVI melanoma = system: LOX IMVI melanoma
SF-295 CNS = system: SF-295 CNS
SF-268 CNS = system: SF-268 CNS
NCI-H23 lung = system: NCI-H23 lung
M14 melanoma = system: M14 melanoma
CAKI-1 renal = system: CAKI-1 renal
HCT-116 colon = system: HCT-116 colon
DU-145 prostate = system: DU-145 prostate
BT-549 breast = system: BT-549 breast
T-47D breast = system: T-47D breast
ACHN renal = system: ACHN renal
HCT-15 colon = system: HCT-15 colon
OVCAR-4 ovarian = system: OVCAR-4 ovarian
EKVX NSCLC = system: EKVX NSCLC
SK-MEL-5 melanoma = system: SK-MEL-5 melanoma
A498 renal = system: A498 renal
UACC-62 melanoma = system: UACC-62 melanoma
SNB-19 CNS = system: SNB-19 CNS
SK-MEL-2 melanoma = system: SK-MEL-2 melanoma
HS 578T breast = system: HS 578T breast
K-562 leukemia = system: K-562 leukemia
HT29 colon = system: HT29 colon
TK-10 renal = system: TK-10 renal
786-0 renal = system: 786-0 renal
RXF 393 renal = system: RXF 393 renal
SK-OV-3 ovarian = system: SK-OV-3 ovarian
MDA-MB-435 = system: MDA-MB-435
OVCAR-5 ovarian = system: OVCAR-5 ovarian
MOLT-4 leukemia = system: MOLT-4 leukemia
CCRF-CEM leukemia = system: CCRF-CEM leukemia
U251 CNS = system: U251 CNS
SR leukemia = system: SR leukemia
KM12 colon = system: KM12 colon
IGROV1 ovarian = system: IGROV1 ovarian
UO-31 renal = system: UO-31 renal
MDA-MB-231 breast = system: MDA-MB-231 breast
OVCAR-8 ovarian = system: OVCAR-8 ovarian
SK-MEL-28 melanoma = system: SK-MEL-28 melanoma
RPMI-8226 leukemia = system: RPMI-8226 leukemia
A549 NSCLC = system: A549 NSCLC
OVCAR-3 ovarian = system: OVCAR-3 ovarian
UACC-257 melanoma = system: UACC-257 melanoma
SNB-75 CNS = system: SNB-75 CNS
MALME-3M melanoma = system: MALME-3M melanoma
NCI-H460 lung = system: NCI-H460 lung
HOP-62 NSCLC = system: HOP-62 NSCLC

NCC1OC(OC2C(N)CC(N)C(O)C2OC2OC(CO)C(O)C2O)C(N)C(O)C1O (stereo not drawn)
TGI (MDA-N): > 100 µM | TGI (NCI-H522 lung): > 100 µM | TGI (PC-3 prostate): > 100 µM | TGI (NCI/ADR-RES ovarian): > 100 µM | TGI (SN12C renal): > 100 µM | TGI (SF-539 CNS): > 100 µM | TGI (NCI-H226 lung): > 100 µM | TGI (HOP-92 NSCLC): > 100 µM | TGI (MCF7 breast): > 100 µM | TGI (HCC-2998 colon): > 100 µM | TGI (HL-60(TB) leukemia): > 100 µM | GI50 (COLO 205 colon): > 100 µM | TGI (COLO 205 colon): > 100 µM | TGI (SW-620 colon): > 100 µM | TGI (LOX IMVI melanoma): > 100 µM | TGI (SF-295 CNS): > 100 µM | TGI (SF-268 CNS): > 100 µM | TGI (NCI-H23 lung): > 100 µM | TGI (M14 melanoma): > 100 µM | TGI (CAKI-1 renal): > 100 µM | GI50 (HCT-116 colon): > 100 µM | TGI (HCT-116 colon): > 100 µM | TGI (DU-145 prostate): > 100 µM | TGI (BT-549 breast): > 100 µM | TGI (T-47D breast): > 100 µM | TGI (ACHN renal): > 100 µM | TGI (HCT-15 colon): > 100 µM | TGI (OVCAR-4 ovarian): > 100 µM | TGI (EKVX NSCLC): > 100 µM | TGI (SK-MEL-5 melanoma): > 100 µM | TGI (A498 renal): > 100 µM | TGI (UACC-62 melanoma): > 100 µM | TGI (SNB-19 CNS): > 100 µM | TGI (SK-MEL-2 melanoma): > 100 µM | TGI (HS 578T breast): > 100 µM | TGI (K-562 leukemia): > 100 µM | TGI (HT29 colon): > 100 µM | TGI (TK-10 renal): > 100 µM | TGI (786-0 renal): > 100 µM | TGI (RXF 393 renal): > 50 µM | TGI (SK-OV-3 ovarian): > 100 µM | TGI (MDA-MB-435): > 100 µM | TGI (OVCAR-5 ovarian): > 100 µM | TGI (MOLT-4 leukemia): > 100 µM | TGI (CCRF-CEM leukemia): > 100 µM | TGI (U251 CNS): > 100 µM | TGI (SR leukemia): > 50 µM | TGI (KM12 colon): > 100 µM | TGI (IGROV1 ovarian): > 100 µM | TGI (UO-31 renal): > 100 µM | TGI (MDA-MB-231 breast): > 100 µM | TGI (OVCAR-8 ovarian): > 100 µM | TGI (SK-MEL-28 melanoma): > 100 µM | GI50 (RPMI-8226 leukemia): 48 µM and > 100 µM | TGI (RPMI-8226 leukemia): > 100 µM | TGI (A549 NSCLC): > 100 µM | TGI (OVCAR-3 ovarian): > 100 µM | TGI (UACC-257 melanoma): > 100 µM | TGI (SNB-75 CNS): > 100 µM | TGI (MALME-3M melanoma): > 100 µM | TGI (NCI-H460 lung): > 100 µM | TGI (HOP-62 NSCLC): > 50 µM

COc1cc2c(cc1OC)C(C1CC1)ON(C)CC2 (stereo not drawn)
TGI (MDA-N): > 100 µM | TGI (NCI-H522 lung): > 100 µM | TGI (PC-3 prostate): > 100 µM | TGI (NCI/ADR-RES ovarian): > 100 µM | TGI (SN12C renal): > 100 µM | TGI (SF-539 CNS): > 100 µM | TGI (NCI-H226 lung): > 100 µM | TGI (HOP-92 NSCLC): > 100 µM | TGI (MCF7 breast): > 100 µM | TGI (HCC-2998 colon): > 100 µM | TGI (HL-60(TB) leukemia): > 100 µM | TGI (COLO 205 colon): > 100 µM | TGI (SW-620 colon): > 100 µM | TGI (LOX IMVI melanoma): > 100 µM | TGI (SF-295 CNS): > 100 µM | TGI (SF-268 CNS): > 100 µM | TGI (NCI-H23 lung): > 100 µM | TGI (M14 melanoma): > 100 µM | TGI (CAKI-1 renal): > 100 µM | TGI (HCT-116 colon): > 100 µM | TGI (DU-145 prostate): > 100 µM | TGI (BT-549 breast): > 100 µM | TGI (T-47D breast): > 100 µM | TGI (ACHN renal): > 100 µM | TGI (HCT-15 colon): > 100 µM | TGI (OVCAR-4 ovarian): > 100 µM | TGI (EKVX NSCLC): > 100 µM | TGI (SK-MEL-5 melanoma): > 100 µM | TGI (A498 renal): > 100 µM | TGI (UACC-62 melanoma): > 100 µM | TGI (SNB-19 CNS): > 100 µM | TGI (SK-MEL-2 melanoma): > 100 µM | TGI (HS 578T breast): > 100 µM | TGI (K-562 leukemia): > 100 µM | TGI (HT29 colon): > 100 µM | TGI (TK-10 renal): > 100 µM | TGI (786-0 renal): > 100 µM | TGI (RXF 393 renal): > 100 µM | TGI (MDA-MB-435): > 100 µM | TGI (OVCAR-5 ovarian): > 100 µM | TGI (MOLT-4 leukemia): > 100 µM | TGI (CCRF-CEM leukemia): > 100 µM | TGI (U251 CNS): > 100 µM | TGI (SR leukemia): > 100 µM | TGI (KM12 colon): > 100 µM | TGI (IGROV1 ovarian): > 100 µM | TGI (UO-31 renal): > 100 µM | TGI (MDA-MB-231 breast): > 100 µM | TGI (OVCAR-8 ovarian): > 100 µM | TGI (SK-MEL-28 melanoma): > 100 µM | TGI (RPMI-8226 leukemia): > 100 µM | TGI (A549 NSCLC): > 100 µM | TGI (OVCAR-3 ovarian): > 100 µM | TGI (UACC-257 melanoma): > 100 µM | TGI (SNB-75 CNS): > 100 µM | TGI (MALME-3M melanoma): > 100 µM | TGI (NCI-H460 lung): > 100 µM | TGI (HOP-62 NSCLC): > 100 µM

COC1CCC(OS(C)(=O)=O)C(C)O1 (stereo not drawn)
TGI (MDA-N): > 10 µM | TGI (NCI-H522 lung): > 10 µM | TGI (PC-3 prostate): > 10 µM | TGI (NCI/ADR-RES ovarian): > 10 µM | TGI (SN12C renal): > 10 µM | TGI (SF-539 CNS): > 10 µM | TGI (NCI-H226 lung): > 10 µM | TGI (HOP-92 NSCLC): > 10 µM | TGI (MCF7 breast): > 10 µM | TGI (HCC-2998 colon): > 10 µM | TGI (HL-60(TB) leukemia): > 10 µM | TGI (COLO 205 colon): > 10 µM | TGI (SW-620 colon): > 10 µM | TGI (LOX IMVI melanoma): > 10 µM | TGI (SF-295 CNS): > 10 µM | TGI (SF-268 CNS): > 10 µM | TGI (NCI-H23 lung): > 10 µM | TGI (M14 melanoma): > 10 µM | TGI (CAKI-1 renal): > 10 µM | TGI (HCT-116 colon): > 10 µM | TGI (DU-145 prostate): > 10 µM | TGI (BT-549 breast): > 10 µM | TGI (T-47D breast): > 10 µM | TGI (ACHN renal): > 10 µM | TGI (HCT-15 colon): > 10 µM | TGI (OVCAR-4 ovarian): > 10 µM | TGI (EKVX NSCLC): > 10 µM | TGI (SK-MEL-5 melanoma): > 10 µM | TGI (A498 renal): > 10 µM | TGI (UACC-62 melanoma): > 10 µM | TGI (SNB-19 CNS): > 10 µM | TGI (SK-MEL-2 melanoma): > 10 µM | TGI (HS 578T breast): > 10 µM | TGI (K-562 leukemia): > 10 µM | TGI (HT29 colon): > 10 µM | TGI (TK-10 renal): > 10 µM | TGI (786-0 renal): > 10 µM | TGI (RXF 393 renal): > 10 µM | TGI (SK-OV-3 ovarian): > 10 µM | TGI (MDA-MB-435): > 10 µM | TGI (OVCAR-5 ovarian): > 10 µM | TGI (MOLT-4 leukemia): > 10 µM | TGI (CCRF-CEM leukemia): > 10 µM | TGI (U251 CNS): > 10 µM | TGI (SR leukemia): > 10 µM | TGI (KM12 colon): > 10 µM | TGI (IGROV1 ovarian): > 10 µM | TGI (MDA-MB-231 breast): > 10 µM | TGI (OVCAR-8 ovarian): > 10 µM | TGI (SK-MEL-28 melanoma): > 10 µM | TGI (RPMI-8226 leukemia): > 10 µM | TGI (A549 NSCLC): > 10 µM | TGI (OVCAR-3 ovarian): > 10 µM | TGI (UACC-257 melanoma): > 10 µM | TGI (SNB-75 CNS): > 10 µM | TGI (MALME-3M melanoma): > 10 µM | TGI (NCI-H460 lung): > 10 µM | TGI (HOP-62 NSCLC): > 10 µM
